Data on 30 compounds can be found in US7053245B2, “N-acylamino benzyl ether derivatives” (Hoffmann-La Roche Inc., priority 2002, dated 2006).

Structures can show the parent of a compound that is named as a salt.

This assay has as its target T1, human MAO-B (Homo sapiens, UniProt P27338).
T1 construct: expressed in transfected cells; host or cells: EBNA cells (transient transfection); cell membranes used
T1 sequence (P27338 1-520): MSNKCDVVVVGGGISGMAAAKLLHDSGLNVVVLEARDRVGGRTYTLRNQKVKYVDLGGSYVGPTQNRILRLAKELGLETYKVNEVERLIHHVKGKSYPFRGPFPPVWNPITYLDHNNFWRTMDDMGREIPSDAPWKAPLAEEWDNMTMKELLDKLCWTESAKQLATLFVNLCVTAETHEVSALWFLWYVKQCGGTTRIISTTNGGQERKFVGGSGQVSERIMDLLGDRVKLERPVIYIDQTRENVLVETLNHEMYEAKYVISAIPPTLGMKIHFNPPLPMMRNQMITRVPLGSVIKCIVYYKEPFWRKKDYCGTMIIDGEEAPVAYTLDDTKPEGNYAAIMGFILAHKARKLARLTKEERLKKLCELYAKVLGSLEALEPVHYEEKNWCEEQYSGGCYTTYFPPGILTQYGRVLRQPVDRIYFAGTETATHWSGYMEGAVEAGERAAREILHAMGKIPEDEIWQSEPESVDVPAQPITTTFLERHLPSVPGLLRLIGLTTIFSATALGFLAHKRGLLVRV
Briefly: MAO-B enzymatic activity, spectrophotometric Amplex Red/peroxidase assay on membranes of transfected EBNA cells. The assay is classed as biochemical. Particulars: membranes preincubated with compound 30 min at 37° C., pH 7.4; substrate tyramine; nine inhibitor concentrations in duplicate. The method, then:
The cDNA's encoding human MAO-A and MAO-B were transiently transfected into EBNA cells using the procedure described by E.-J. Schlaeger and K. Christensen (Transient Gene Expression in Mammalian Cells Grown in Serum-free Suspension Culture; Cytotechnology, 15: 1-13, 1998). After transfection, cells were homogenised by means of a Polytron homogenizer in 20 mM Tris HCl buffer, pH 8.0, containing 0.5 mM EGTA and 0.5 mM phenylmethanesulfonyl fluoride. Cell membranes were obtained by centrifugation at 45,000×g and, after two rinsing step with 20 mM Tris HCl buffer, pH 8.0, containing 0.5 mM EGTA, membranes were eventually re-suspended in the above buffer and aliquots stored at −80° C. until use.
MAO-A and MAO-B enzymatic activity was assayed in 96-well-plates using a spectrophometric assay adapted from the method described by M. Zhou and N. Panchuk-Voloshina (A One-Step Fluorometric Method for the Continuous Measurement of Monoamine Oxidase Activity, Analytical Biochemistry, 253: 169-174, 1997). Briefly, membrane aliquots were incubated in 0.1 M potassium phosphate buffer, pH 7.4, for 30 min at 37° C. with or without various concentrations of the compounds. After this period, the enzymatic reaction was started by the addition of the MAO substrate tyramine together with 1 U/ml horse-radish peroxidase (Roche Biochemicals) and 80 μM N-acetyl-3,7,-dihydroxyphenoxazine (Amplex Red, Molecular Probes). The samples were further incubated for 30 min at 37° C. in a final volume of 200 μl and absorbance was then determine at a wavelength of 570 nm using a SpectraMax plate reader (Molecular Devices). Background (non-specific) absorbance was determined in the presence of 10 μM clorgyline for MAO-A or 10 μM L-deprenyl for MAO-B.
IC50 values were determined from inhibition curves obtained using nine inhibitor concentrations in duplicate, by fitting data to a four parameter logistic equation using a computer program.
A word on the IC50: it is the midpoint of a concentration-inhibition curve. On to `COC(=O)CC(=O)Nc1ccc(OCc2cccc(F)c2)cc1` [Example 1, N-[4-(3-Fluoro-benzyloxy)-phenyl]-malonamic acid methyl ester], for which the IC50 is 0.011 µM.
Then `NC(=O)C1(C(=O)Nc2ccc(OCc3cccc(F)c3)cc2)CC1` [Example 2, Cyclopropane-1,1-dicarboxylic acid amide [4-(3-fluoro-benzyloxy)-phenyl]-amide], with 0.0079 µM; and `NC(=O)CC(=O)Nc1ccc(OCc2cccc(F)c2)cc1` [Example 3, N-[4-(3-Fluoro-benzyloxy)-phenyl]-malonamide], with 0.0109 µM; and `CC(C(N)=O)C(=O)Nc1ccc(OCc2cccc(F)c2)cc1` (stereo not drawn) [Example 6, N-[4-(3-Fluoro-benzyloxy)-phenyl]-2-methyl-malonamide], with 0.013 µM.
Regarding `COC(=O)CC(=O)Nc1ccc(OCc2cccc(F)c2)c(F)c1` [Example 8, N-[3-Fluoro-4-(3-fluoro-benzyloxy)-phenyl]-malonamic acid methyl ester], the IC50 worked out at 0.0096 µM.
Then `NC(=O)CC(=O)Nc1ccc(OCc2cccc(F)c2)c(F)c1` [Example 9, N-[3-Fluoro-4-(3-fluoro-benzyloxy)-phenyl]-malonamide], with 0.0072 µM.
With `COC(=O)CC(=O)Nc1ccc(OCc2ccc(F)cc2)cc1` [Example 10, N-[4-(4-Fluoro-benzyloxy)-phenyl]-malonamic acid methyl ester], the IC50 was found to be 0.0112 µM.
Then `NC(=O)CC(=O)Nc1ccc(OCc2ccc(F)cc2)cc1` [Example 11, N-[4-(4-Fluoro-benzyloxy)-phenyl]-malonamide], with 0.0075 µM.
The same measure for `COC(=O)CC(=O)Nc1ccc(OCc2cccc(F)c2)cc1F` [Example 14, N-[2-Fluoro-4-(3-fluoro-benzyloxy)-phenyl]-malonamic acid methyl ester]: 0.009 µM; for `COC(=O)CC(=O)Nc1ccc(OCc2ccc(F)cc2F)cc1` [Example 25, N-[4-(2,4-Difluoro-benzyloxy)-phenyl]-malonamic acid methyl ester]: 0.011 µM; for `COC(=O)CC(=O)Nc1ccc(OCc2cc(F)c(F)cc2F)cc1` [Example 27, N-[4-(2,4,5-Trifluoro-benzyloxy)-phenyl]-malonamic acid methyl ester]: 0.011 µM.
Then `NC(=O)CC(=O)Nc1ccc(OCc2ccc(F)cc2F)cc1` [Example 28, N-[4-(2,4-Difluoro-benzyloxy)-phenyl]-malonamide], with 0.008 µM; and `NC(=O)CC(=O)Nc1ccc(OCc2cc(F)c(F)cc2F)cc1` [Example 29, N-[4-(2,4,5-Trifluoro-benzyloxy)-phenyl]-malonamide], with 0.008 µM.
`NC(=O)CC(=O)Nc1ccc(OCc2ccc(Cl)cc2)cc1` [Example 34, N-[4-(4-Chloro-benzyloxy)-phenyl]-malonamide]: the 50% inhibitory concentration (IC50) worked out at 0.018 µM.
Then `NC(=O)CC(=O)Nc1ccc(OCc2cccc(F)c2)cc1O` [Example 38, N-[4-(3-Fluoro-benzyloxy)-2-hydroxy-phenyl]-malonamide], with 0.016 µM; and `COC(=O)CC(=O)Nc1ccc(OCc2ccc(F)cc2)cc1F` [Example 39, N-[2-Fluoro-4-(4-fluoro-benzyloxy)-phenyl]-malonamic acid methyl ester], with 0.005 µM.
Then `NC(=O)CC(=O)Nc1ccc(OCc2ccc(F)cc2)cc1F` [Example 40, N-[2-Fluoro-4-(4-fluoro-benzyloxy)-phenyl]-malonamide], with 0.015 µM.
Then `COC(=O)CC(=O)Nc1ccc(OCc2cc(C(F)(F)F)cc(C(F)(F)F)c2)cc1F` [Example 41, N-[4-(3,5-Bis-trifluoromethyl-benzyloxy)-2-fluoro-phenyl]-malonamic acid methyl ester], with 0.013 µM.
For the compound `NC(=O)CC(=O)Nc1ccc(OCc2ccc(C(F)(F)F)cc2)cc1F` [Example 44, N-[2-Fluoro-4-(4-trifluoromethyl-benzyloxy)-phenyl]-malonamide], the half-maximal inhibitory concentration (IC50) was 0.009 µM.
Then `COC(=O)CC(=O)Nc1ccc(OCc2cccc(F)c2)c(C)c1` [Example 47, N-[4-(3-Fluoro-benzyloxy)-3-methyl-phenyl]-malonamic acid methyl ester], with 0.014 µM.
With `Cc1cc(NC(=O)CC(N)=O)ccc1OCc1cccc(F)c1` [Example 48, N-[4-(3-Fluoro-benzyloxy)-3-methyl-phenyl]-malonamide], the IC50 was 0.019 µM.
Then `COC(=O)CC(=O)Nc1ccc(OCc2cccc(F)c2)c(Cl)c1` [Example 49, N-[3-Chloro-4-(3-fluoro-benzyloxy)-phenyl]-malonamic acid methyl ester], with 0.01 µM; and `NC(=O)CC(=O)Nc1ccc(OCc2cccc(F)c2)c(Cl)c1` [Example 50, N-[3-Chloro-4-(3-fluoro-benzyloxy)-phenyl]-malonamide], with 0.006 µM.
For the compound `COC(=O)CC(=O)Nc1ccc(C=Cc2ccc(F)cc2)cc1` [Example 56, N-{4-[2-(4-Fluoro-phenyl)-vinyl]-phenyl}-malonamic acid methyl ester], the IC50 was 0.01 µM.
The same measure for `NC(=O)CC(=O)Nc1ccc(C=Cc2ccc(F)cc2)cc1` [Example 57, N-{4-[2-(4-Fluoro-phenyl)-vinyl]-phenyl}-malonamide]: 0.018 µM; for `NCC(=O)Nc1ccc(OCc2ccc(F)cc2)cc1F` [Example 66, 2-Amino-N-[2-fluoro-4-(4-fluoro-benzyloxy)-phenyl]-acetamide (1:1) hydrochloride]: 0.016 µM.
Then `CC(=O)NCC(=O)Nc1ccc(OCc2ccc(F)cc2)cc1F` [Example 70, 2-Acetylamino-N-[2-fluoro-4-(4-fluoro-benzyloxy)-phenyl]-acetamide], with 0.011 µM; and `O=CNCC(=O)Nc1ccc(OCc2ccc(F)cc2)cc1F` [Example 72, N-[2-Fluoro-4-(4-fluoro-benzyloxy)-phenyl]-2-formylamino-acetamide], with 0.007 µM.
The same measure for `CC(=O)NCC(=O)Nc1ccc(OCc2cccc(F)c2)cc1F` [Example 75, 2-Acetylamino-N-[2-fluoro-4-(3-fluoro-benzyloxy)-phenyl]-acetamide]: 0.013 µM.
Regarding `O=CNCC(=O)Nc1ccc(OCc2cccc(F)c2)cc1F` [Example 76, N-[2-Fluoro-4-(3-fluoro-benzyloxy)-phenyl]-2-formylamino-acetamide], the IC50 was determined as 0.016 µM.
